Our source for the MIC and IC50 values is ChEMBL document CHEMBL1126942, “Synthesis and antibacterial activity of a new series of tetracyclic pyridone carboxylic acids” (J Med Chem, 1993).

Holding throughout (assay type): functional
Test [1] concerns Klebsiella pneumoniae. The test can be described thus: Tested in vitro for antibacterial activity against Klebsiella pneumoniae (B54).
The test system of test [2] is Escherichia coli. The test can be described thus: Tested for inhibitory activity against DNA gyrase supercoiling in Escherichia coli (KL-16).
Test [3] has as its system Staphylococcus epidermidis. The test can be described thus: Tested in vitro for antibacterial activity against Staphylococcus epidermidis (IAM 1296).
The subject of test [4] is Staphylococcus aureus. The test can be described thus: Tested in vitro for antibacterial activity against Staphylococcus aureus (FDA 209P JC-1).
Test [5] has as its system Staphylococcus aureus. Kind of test: Tested in vitro for antibacterial activity against Staphylococcus aureus (IID 803).
For test [6], the system named is Escherichia coli. Kind of test: Tested in vitro for antibacterial activity against Escherichia coli (KC-14).
Test [7] has as its system Pseudomonas aeruginosa. Kind of test: Tested in vitro for antibacterial activity against Pseudomonas aeruginosa (E-2).
In test [8] the test system is Pseudomonas aeruginosa. The test can be described thus: Tested in vitro for antibacterial activity against Pseudomonas aeruginosa (IFO 3445).
In test [9] the test system is Escherichia coli. The test can be described thus: Tested in vitro for antibacterial activity agains Escherichia coli (NIHJ JC-2).
Test [10] relates to Enterococcus faecalis. The test can be described thus: Tested in vitro for antibacterial activity agains Enterococcus faecalis (IID 682).

Converted amounts (≈) assume the structure as drawn.

Broadly, the MIC is the lowest concentration that inhibits growth of the organism. Read a high MIC as weaker potency. By IC50 is commonly meant the concentration at which inhibition is half-maximal.

On to `CN1CCN(c2c(F)cc3c(=O)c(C(=O)O)c4n5c3c2N(C)CC5CS4)CC1.Cl` (stereo unspecified), for which the MIC in test [1] is 0.39 µg/mL; in [3] it was 0.78 µg/mL; in test [4] it was 0.78 µg/mL; in test [5], 0.39 µg/mL; in [6], 0.78 µg/mL; in test [7] it was 6.25 µg/mL. In addition, the minimum inhibitory concentration (MIC) was 6.25 µg/mL in [8], 0.78 µg/mL in test [9] and 1.56 µg/mL in test [10]. This compound showed an IC50 in [2] of 0.53 µg/mL.

Turning to `CC1COc2c(N3CCN(C)CC3)c(F)cc3c(=O)c(C(=O)O)cn1c23` (stereo unspecified) [OFLOXACIN], the IC50 in test [2] is 0.53 µg/mL (≈ 1.47 µM).

With `CN1CCN(c2c(F)cc3c(=O)c(C(=O)O)c4n5c3c2C(=O)CC5CS4)CC1.Cl` (stereo unspecified), the MIC in test [1] was 0.78 µg/mL; in test [3], 3.13 µg/mL; in test [4] it was 0.78 µg/mL; in test [5], 0.78 µg/mL; in [6] it was 0.39 µg/mL; in test [7], 3.13 µg/mL. For the same compound, the results for the MIC in test [8], in test [9] and in test [10] were 6.25 µg/mL, 0.78 µg/mL and 3.13 µg/mL, respectively. The compound also showed an IC50 in test [2] of 0.67 µg/mL.

Regarding `CN1CCN(c2c(F)cc3c(=O)c(C(=O)O)c4n5c3c2SCC5CO4)CC1.Cl` (stereo unspecified), the minimum inhibitory concentration (MIC) in test [1] turned out to be 1.56 µg/mL; in [3], 6.25 µg/mL; in [4], 1.56 µg/mL; in test [5], 3.13 µg/mL; in [6], 1.56 µg/mL; in test [7], 60 µg/mL. Moreover, the figures for the minimal inhibitory concentration (MIC) in test [8], in test [9] and in test [10] were 50 µg/mL, 1.56 µg/mL and 6.25 µg/mL, respectively. Besides, the 50% inhibitory concentration (IC50) in test [2] came out at 2.61 µg/mL.

`CN1CCN(c2c(F)cc3c(=O)c(C(=O)O)c4n5c3c2OCC5CS4)CC1.Cl` (stereo unspecified): the MIC in test [1] was determined as 0.05 µg/mL; in [3], 0.2 µg/mL; in test [4], 0.1 µg/mL; in [5], 0.1 µg/mL; in [6], 0.025 µg/mL; in [7], 1.56 µg/mL. The MIC in [8] was found to be 1.56 µg/mL; in test [9], 0.05 µg/mL; in test [10], 0.78 µg/mL. In test [2], this compound displayed an IC50 of 0.33 µg/mL.
